This note sets out measurements from ChEMBL document CHEMBL1201862, “PubChem BioAssay data set” (2004).

Test systems include 786-0; CCRF-CEM; EKVX; HCC 2998; HCT-116; HCT-15; IGROV-1; MDA-N; Malme-3M; NCI-H460; OVCAR-3; OVCAR-5; RXF 393; SF-295; SNB-19; SR; TK-10; UO-31; HT-29; SN12C.
What all share (test): NCI anticancer screen, dose series, 48 h

Molecules are shown by their SMILES.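 Five concentrations, 48 hours, 96-well plates. At the GI50, growth is halved.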 Calls of active or inactive are those of the source. Cut-off read from the data, not from the text of the source: active = GI50 up to about 1.1 µM and inactive = higher.

Consider `N/C(=N\n1c(=S)[nH]c2ccccc2c1=O)Nn1c(=S)[nH]c2ccccc2c1=O`, for which the GI50 is 15.3 µM (inactive) in the assay with 786-0; 18.8 µM (inactive) in the assay with CCRF-CEM; 67.6 µM (inactive) in the assay with EKVX; > 100 µM (inactive) with HCC 2998; 16.8 µM (inactive) with HCT-116; 22.6 µM in the assay on HCT-15. Also, the GI50 was 28.9 µM (inactive) with IGROV-1; 24.7 µM (inactive) with MDA-N; 20.5 µM (inactive) in the assay on Malme-3M; 44.1 µM (inactive) in the assay with NCI-H460; > 100 µM (inactive) with OVCAR-3; 80.4 µM (inactive) with OVCAR-5. The GI50 in the assay on RXF 393 was 35.3 µM (inactive); with SF-295, > 100 µM (inactive); with SNB-19, 88.3 µM (inactive); in the assay on SR it was 20.3 µM (inactive); in the assay with TK-10 it was > 100 µM (inactive); in the assay on UO-31, 14.3 µM (inactive).
On to `CC(=O)Nc1ccccc1C=C1c2ccccc2-c2ccccc21`, for which the GI50 was 19.9 µM (inactive) in the assay on 786-0; 48 µM (inactive) in the assay with CCRF-CEM; 38.8 µM (inactive) with EKVX; 84.9 µM (inactive) in the assay on HCC 2998; 29.7 µM (inactive) in the assay with HCT-116; 45.8 µM in the assay with HCT-15. In addition, the GI50 in the assay with HT-29 is > 100 µM (inactive); in the assay on IGROV-1 it was 33 µM (inactive); in the assay with MDA-N it was > 100 µM (inactive); in the assay with Malme-3M it was > 100 µM (inactive); in the assay with NCI-H460, 34.7 µM (inactive); in the assay with OVCAR-3 it was 25.1 µM (inactive). Moreover, the GI50 in the assay on OVCAR-5 was 35.9 µM (inactive); in the assay with RXF 393, 20.8 µM (inactive); with SF-295, 20.9 µM (inactive); in the assay with SN12C, 19.1 µM (inactive); in the assay on SNB-19 it was 17.8 µM (inactive); in the assay on SR it was 98.9 µM (inactive). The GI50 in the assay on TK-10 was 31.3 µM (inactive); with UO-31, 16.2 µM (inactive).
Take `COc1ccc2c(c1)CC[C@@H]1C2CC[C@]2(C)OC(=O)CCC12` (stereo partly specified): the GI50 in the assay on 786-0 was 5.85 µM (inactive); in the assay on CCRF-CEM, 3.6 µM (inactive); with EKVX it was 7.73 µM (inactive); in the assay with HCC 2998, > 100 µM (inactive); with HCT-116, 8.89 µM (inactive); in the assay on HCT-15, 17.5 µM. For the same molecule, the GI50 with HT-29 is 19.8 µM (inactive); with IGROV-1, 23.6 µM (inactive); in the assay with MDA-N, 20.3 µM (inactive); with Malme-3M, 15.7 µM (inactive); in the assay on NCI-H460, 22.7 µM (inactive); with OVCAR-3, 11.6 µM (inactive). Moreover, the GI50 in the assay with OVCAR-5 is 13.3 µM (inactive); in the assay with RXF 393, 12.7 µM (inactive); in the assay on SF-295 it was 18.3 µM (inactive); in the assay with SN12C, 14.8 µM (inactive); in the assay on SNB-19, 17.4 µM (inactive); with SR it was 5.12 µM (inactive). Further, the GI50 in the assay on TK-10 is 34.2 µM (inactive); with UO-31, 17.9 µM (inactive).
Regarding `CN(C)c1ccc(/C=C/c2ccnc3ccccc23)cc1`, the GI50 in the assay on 786-0 was 89.7 µM (inactive); with CCRF-CEM, 49.5 µM (inactive); with EKVX, 49 µM (inactive); with HCC 2998 it was > 100 µM (inactive); with HCT-116 it was 39.8 µM (inactive); in the assay on HCT-15 it was 61.1 µM. Further, the GI50 with HT-29 is 25.3 µM (inactive); with IGROV-1 it was > 100 µM (inactive); with MDA-N, 17.7 µM (inactive); in the assay on Malme-3M, 53.2 µM (inactive); in the assay on NCI-H460, 47.9 µM (inactive); in the assay with OVCAR-3, > 100 µM (inactive). For the same molecule, the GI50 is > 100 µM (inactive) in the assay on OVCAR-5; 54.3 µM (inactive) with RXF 393; 54.7 µM (inactive) in the assay on SF-295; 64.9 µM (inactive) in the assay on SN12C; > 100 µM (inactive) with SNB-19; 30.5 µM (inactive) in the assay on SR. Further, the GI50 with TK-10 was 65.8 µM (inactive); in the assay on UO-31 it was 43.9 µM (inactive).
`COC(=O)CNC(=O)C(CSC(=O)OCC1c2ccccc2-c2ccccc21)NC(=O)CCC(NC(=O)OCC1c2ccccc2-c2ccccc21)C(=O)OC` (stereo unspecified): the GI50 was 13.7 µM (inactive) in the assay on 786-0; 14 µM (inactive) in the assay on CCRF-CEM; 54.3 µM (inactive) in the assay on EKVX; 21.2 µM (inactive) in the assay with HCC 2998; 17.5 µM (inactive) in the assay with HCT-116; 28 µM with HCT-15. For the same molecule, the GI50 with IGROV-1 is 17.8 µM (inactive); with MDA-N it was 18.8 µM (inactive); with Malme-3M, 25.7 µM (inactive); in the assay on NCI-H460 it was 24.4 µM (inactive); in the assay on OVCAR-3, 18.1 µM (inactive); in the assay on OVCAR-5, 25.6 µM (inactive). Also, the GI50 with RXF 393 is 16.8 µM (inactive); in the assay with SF-295, 17.4 µM (inactive); in the assay with SN12C, > 100 µM (inactive); with SNB-19, 23.8 µM (inactive); with SR, 12.6 µM (inactive); in the assay on TK-10, 36.7 µM (inactive). In the assay with UO-31, the GI50 was 18.7 µM (inactive).
As for `COC(=O)/C=C/[C@@H]1[C@H](C)N1S(=O)(=O)c1ccc(C)cc1` (stereo partly specified), the GI50 with 786-0 is 61.4 µM (inactive); in the assay on CCRF-CEM it was > 100 µM (inactive); in the assay with EKVX, > 100 µM (inactive); with HCC 2998, > 100 µM (inactive); in the assay on HCT-116, > 100 µM (inactive); in the assay on HCT-15 it was more than 100 µM. Further, the GI50 in the assay on HT-29, in the assay on IGROV-1, in the assay with MDA-N, in the assay with Malme-3M, with NCI-H460 and with OVCAR-3 was > 100 µM (inactive) each time. Besides, the GI50 with OVCAR-5, in the assay on RXF 393, in the assay on SF-295, in the assay with SN12C, in the assay with SNB-19 and in the assay on SR was > 100 µM (inactive) throughout. Further, the GI50 in the assay on TK-10 is > 100 µM (inactive).
Take `COc1cc(C2S/C(=C/c3ccccc3)C(=O)N2c2cc(Cl)ccc2Cl)cc(OC)c1OC` (stereo unspecified): the GI50 in the assay on 786-0 is 18.8 µM (inactive); with CCRF-CEM, 35.2 µM (inactive); in the assay on EKVX, 24.2 µM (inactive); in the assay with HCC 2998, > 100 µM (inactive); in the assay with HCT-116, 12.5 µM (inactive); in the assay on HCT-15, 38.3 µM. Further, the GI50 with HT-29 was 47.1 µM (inactive); with IGROV-1, 18.9 µM (inactive); in the assay with MDA-N, 34.5 µM (inactive); in the assay on Malme-3M, 32.8 µM (inactive); with NCI-H460, > 100 µM (inactive); in the assay on OVCAR-3 it was 32.3 µM (inactive). In addition, the GI50 is 39.4 µM (inactive) in the assay on RXF 393; 60.3 µM (inactive) in the assay with SF-295; 45.9 µM (inactive) in the assay with SN12C; 71.9 µM (inactive) with SNB-19; 44.9 µM (inactive) with SR; > 100 µM (inactive) with TK-10. Also, the GI50 in the assay with UO-31 is 55.7 µM (inactive).
As for `O=c1[nH][nH]c(=O)n1CCCCCCn1c(=O)[nH][nH]c1=O`, the GI50 in the assay with 786-0 was > 100 µM (inactive); in the assay on CCRF-CEM it was > 100 µM (inactive); in the assay on EKVX it was > 100 µM (inactive); with HCC 2998, > 100 µM (inactive); in the assay on HCT-116, > 100 µM (inactive); in the assay with HCT-15, more than 100 µM. In addition, the GI50 with HT-29, in the assay with MDA-N, in the assay on Malme-3M, with NCI-H460, in the assay on OVCAR-3 and in the assay on OVCAR-5 was > 100 µM (inactive) in each case. The GI50 with RXF 393, in the assay on SN12C, in the assay with SNB-19, with SR, in the assay with TK-10 and in the assay on UO-31 was > 100 µM (inactive) in each case.
Take `Cc1cn([C@@H]2C[C@H](CO)[C@@H]2O)c(=O)[nH]c1=O`: the GI50 is > 100 µM (inactive) with 786-0; > 100 µM (inactive) in the assay with CCRF-CEM; > 100 µM (inactive) in the assay with EKVX; > 100 µM (inactive) with HCC 2998; > 100 µM (inactive) in the assay with HCT-116; more than 100 µM in the assay on HCT-15. Moreover, the GI50 with HT-29, in the assay with IGROV-1, in the assay with MDA-N, in the assay on Malme-3M, in the assay with NCI-H460 and in the assay on OVCAR-3 was > 100 µM (inactive) throughout. In addition, the GI50 in the assay on OVCAR-5, in the assay with RXF 393, in the assay on SF-295, in the assay with SN12C, in the assay with SR and in the assay on TK-10 was > 100 µM (inactive) throughout. Further, the GI50 in the assay with UO-31 is > 100 µM (inactive).
With `CN(C)c1ccc2oc(=O)c3ccccc3c2c1`, the GI50 in the assay with 786-0 was 30.5 µM (inactive); with CCRF-CEM it was > 100 µM (inactive); in the assay with EKVX, 20.4 µM (inactive); with HCC 2998, > 100 µM (inactive); in the assay with HCT-116, 40.9 µM (inactive); with HCT-15, more than 100 µM. Also, the GI50 in the assay with HT-29 was > 100 µM (inactive); in the assay with IGROV-1 it was 51.4 µM (inactive); in the assay on MDA-N, > 100 µM (inactive); in the assay with Malme-3M, > 100 µM (inactive); in the assay with NCI-H460 it was > 100 µM (inactive); in the assay with OVCAR-3 it was > 100 µM (inactive). Also, the GI50 with OVCAR-5 is > 100 µM (inactive); with RXF 393, 31.5 µM (inactive); in the assay on SF-295 it was 28.8 µM (inactive); with SN12C, > 100 µM (inactive); in the assay with SNB-19 it was 23.1 µM (inactive); with SR, > 100 µM (inactive). The GI50 with TK-10 was 39.7 µM (inactive).
